For 1 compound, ATZ released and maximum degradation temperature results are on record in patent US20260206745A1, “DOUBLE ENCAPSULATED NANOCOMPOSITE FOR STAGED DELIVERY OF ACTIVE INGREDIENT(S), AND A METHOD OF PRODUCING THEREOF” (COUNCIL OF SCIENTIFIC AND INDUSTRIAL RESEARCH, priority 2022, published 2026).

The nature of series [1]: In vitro atrazine release from nanoformulations (dialysis). Type of series: physicochemical. Conditions: after 94 hours, DI water, dialysis 12 kDa. How it is done:
B) In vitro atrazine release from nanoformulations: A dialysis tubing (MWCO 12 kDa, Sigma-Aldrich, St. Louis, USA) was taken with nfATZ (2 mg), where the total amount of ATZ loaded was 200 μg. In another dialysis tubing, 200 μg of ATZ (bulk form) dispersed in 2 ml of distilled water (DW) with 0.1% w/v sodium azide was taken. These dialysis bags were kept in 18 mL of DW containing sodium azide, and the release studies were done at 37° C. in a shaker bath (SW23, Julabo, Seelbach, Germany) at 50 rpm. At regular intervals, 1 mL of DW was withdrawn and replaced with 1 mL of fresh DW to maintain the sink conditions. The withdrawn DW was analyzed for the amount of ATZ released using a UV-visible spectrophotometer at λmax of 222 nm. […] After 94 hours of release studies, 60% of ATZ was released in the case of plain ATZ, while 22% of ATZ was released from the nfATZ. […] From this observation, it is noted that the another […] of release from the nano-formulation can extend up to 30 days. From these studies, inventors concluded that the nanoformulations is the best choice to control the weeds for an extended period, which can be manipulated as desired by changing concentration of EC and ATZ.

Series [2] can be described thus: Thermal gravimetric analysis (TGA). The class given is physicochemical. Conditions: TGA under N2, 10° C. min^−1. An excerpt: A) Characterization: The morphology and size distribution of the nf and nfATZ were observed using a field emission scanning electron microscope (FE-SEM; Nova NanoSEM 450, FEI, Hillsboro, USA) and a high-resolution transmission electron microscope (HR-TEM; Tecnai TF20, 200 kV FEG, FEI, Hillsboro, USA). The ζ-potential and particle size distribution of nf and nfATZ were estimated using a PALS zeta potential analyzer (Brookhaven Instruments, Holtsville, USA). The material structural analysis was determined using a Fourier transform infrared spectrometer (FTIR; PerkinElmer, Waltham, USA) and X-ray diffractometer (XRD; PANalytical X'Pert PRO, Malvern Panalytical, Malvern, UK). The interaction between ATZ and EC was analyzed using differential scanning calorimetry (DSC). […]
The nf depicts a shift in Tg from 121° C. to 131º° C. […] The nfATZ recorded a Tg at 125° C.; a shift in the Tg from 131° C. […] Two-stage decomposition temperatures were recorded for pristine EC, 50-95° C., due to loss of moisture (weight loss, 2.9%) and 150-380° C. due to fragmentation of chemical bonds (weight loss, 85%). […] Further, it is observed that nfATZ recorded a broad first derivative peak for the weight loss, which may be due to the merging of two first derivative peaks, one for ATZ and the other for EC.

For the compound `CCNc1nc(Cl)nc(NC(C)C)n1` [plain ATZ, Atrazine], the ATZ released in series [1] is listed as 60%. In series [2], this compound showed a maximum degradation temperature of 230 °C.
